Source: patent US20210364494A1, “CELL-SUBSTRATE IMPEDANCE MONITORING OF CANCER CELLS OF DIFFERENT LINEAGE, ORIGIN, OR STAGE” (ACEA BIOSCIENCES, INC., priority 2017, published 2021)

Experiments:
Assay type in all cases: cell-based, human
A549 cells = test: Dynamic monitoring of drug interaction with target cells by RT-CES
Description: Drug Treatment and Cytotoxicity Assessment. […] The indicated cell numbers were seeded per chamber of ACEA's 16X or 96X E-Plate (cartridge for monitoring cell-substrate impedance) in 100 μL final volume.
In order to observe the kinetics of drug interaction with target cells, A549 non-small lung cancer cells were seeded in ACEA 96X E-Plate™ and continuously monitored until the cells reached the log growth phase at which point different concentrations of paclitaxel were added to the cells at the indicated final concentration. […] While it remains to be determined if this phenomenon is due to metabolism and inactivation of paclitaxel or due to the emergence of paclitaxel-resistant subpopulation, this experiment clearly exemplifies the tremendous advantage of real-time measurement which is offered by the RT-CES system and allows the user to the opportunity to observe and assess the entire history of drug interaction with the target cells which provides further information in addition to cell viability or cytotoxicity. The phenomenon observed in FIG. 20A would've been easily missed by traditional single-point assays such as MTT.
Yet another major advantage of using the RT-CES system to continually monitor the interaction of drugs with target cells is that the user can obtain insight into the mechanism of action of the drug of interest. […] The cells were treated with either DMSO as the vehicle control or with 100 μM Olomoucine which is a CDK inhibitor and induces cell cycle arrest either at G1→S transition or at the G2→M transition, depending on the cell line. […] The control cells treated with DMSO continue to proliferate until they reach confluence, at which time they are contact inhibited and the Cell Index recording levels off. […]
(§1) Inhibition of NK-mediated cytolysis of target cells by agents which block the signaling pathways leading to cytotoxicity. […] We calculated percent inhibition of cytolysis for both inhibitors at different time points after NK addition. […]

[1] = system: NK-92-mediated cytolysis of A549 cells; test: Inhibition of NK-92-mediated cytolysis of target cells by signaling pathway inhibitors (RT-CES)
Description: (FIG. 31A) A549 cells were seeded in the chambers of E-PLATES. Twenty four hours after seeding NK-cells at a density of 16:1 (E/T ratio) were pre-incubated with the different concentrations of the MEK inhibitor PD 98059 for thirty minutes and then added to A549 cells at the indicated time point (arrow). The viability of A549 cells were continually monitored using the RT-CES system. (FIG. 31B) The extent of NK-92 mediated cytolystic activity in the presence of MEK inhibitor was calculated at the indicated times post-NK addition as described in materials and methods section. (FIG. 31C) The effect of PI3 Kinase inhibitor Wortmannin on NK-92 mediated cytolysis of A549 cells. The cells were treated with the inhibitor as described in (FIG. 31A). (FIG. 31D) Percent cytolytic activity of NK-92 cells was calculated at the end of the experiment described in (FIG. 31C).
Cytolytic analysis. Target cells were seeded into the chambers of either 16-chamber or 96-chamber E-plate in 100 μL of media. Cell growth was dynamically monitored using the RT-CES system for a period of 24-34 hours, depending on the experiment until they reached log growth phase and formed a monolayer. […]
as §1

H460 cells = test: Time-dependent cell index of cancer cells treated with anticancer drug (cell-substrate impedance)
Description: In this experiment, H460 cells were introduced into chambers of a 16X cell-substrate impedance monitoring cartridge (16X E-Plate). The cartridge was positioned on a cartridge station that was located in an incubator maintaining conditions of 37° C. and 5% CO2. The cells were cultured and treated at their exponential growth phase with different concentrations of paclitaxel. The dynamic response of the cells to different doses of paclitaxel was monitored by monitoring cell-substrate impedance in real time every 15 minutes for 50 hours after treatment using a cell-substrate impedance monitoring system. The cell-substrate impedance monitoring system calculated the cell index at each time point monitored and plotted the cell index as a function of time. […] However, the cell index reached a minimum at a time dependent on the compound concentration, between about 15 hours and 20 hours after compound addition. After that point, there was a gradual increase in cell index in these chambers.
H460 cells were introduced into chambers of a 16X cell-substrate impedance monitoring cartridge (16X E-Plate). […] The dynamic response of the cells to different doses of AC101103 was monitored by measuring impedance in real time every 30 minutes for about 20 hours after treatment on the cell-substrate monitoring system. […]

[2] = A549 cells, highest concentration

Structure (SMILES) | effect of inhibitor alone on target cell baseline (A549 cells; A549 target cells incubated with inhibitor alone, no NK cells) | inhibition of NK-92-mediated cytolysis ([1]; NK-92 pre-incubated with inhibitor, then added to A549 target cells) | time dependence of percent inhibition of cytolysis ([1]; different time points after NK addition) | initial effect on Cell Index (with Annexin V staining) (A549 cells; [2]) | later course of Cell Index after the initial effect (A549 cells; [2]) | time over which cell index exhibited a near-constant value (H460 cells; 33 nanomolar) | cell index response after compound addition (H460 cells; concentrations between 67 nanomolar and 500 nanomolar)
COc1cccc(-c2cc(=O)c3ccccc3o2)c1N [PD98059] | minimal effect on the baseline | dose-dependently inhibited NK-92-mediated cytolysis of A549 cells | consistent inhibition of cytolysis at all the indicated time points |  |  |  | 
CC(=O)O[C@H]1C(=O)[C@@]2(C)[C@H]([C@H](OC(=O)c3ccccc3)[C@]3(O)C[C@H](OC(=O)[C@H](O)[C@@H](NC(=O)c4ccccc4)c4ccccc4)C(C)=C1C3(C)C)[C@]1(OC(C)=O)CO[C@@H]1C[C@@H]2O [paclitaxel] |  |  |  | initially induces a cytotoxic effect which is mainly due to cell death | recover from the initial cytotoxic effect of the drug and start to re-proliferate | about 15 hours | gradual decrease in cell index
